1 compound from patent US20230083015A1, “SMALL MOLECULE DEGRADERS OF STAT3” (THE REGENTS OF THE UNIVERSITY OF MICHIGAN, priority 2019, published 2023) can be followed below.

Common to all, as to type: cell-based
In assay [1] the test system is ALCL and AML cell lines expressing high levels of STAT3. In words: Cell growth inhibition in ALCL and AML cell lines. The text has this:
FIG. 12 is a table showing that Cpd.

The target in assay [2] is T1, STAT3 (Homo sapiens, UniProt P40763). In words: Western blotting of total STAT1, STAT2, STAT3, STAT5 and STAT6 protein in Molm-16 cells. Further details: endogenous in cells; host or cells: MOLM-16. On the procedure: FIG. 10 is an image showing the Western blotting analysis of total STAT1, STAT2, STAT3, STAT5, and STAT6 protein in Molm-16 cells treated with Cpd. No. 36. Cpd.
T1 sequence (P40763 whole entry): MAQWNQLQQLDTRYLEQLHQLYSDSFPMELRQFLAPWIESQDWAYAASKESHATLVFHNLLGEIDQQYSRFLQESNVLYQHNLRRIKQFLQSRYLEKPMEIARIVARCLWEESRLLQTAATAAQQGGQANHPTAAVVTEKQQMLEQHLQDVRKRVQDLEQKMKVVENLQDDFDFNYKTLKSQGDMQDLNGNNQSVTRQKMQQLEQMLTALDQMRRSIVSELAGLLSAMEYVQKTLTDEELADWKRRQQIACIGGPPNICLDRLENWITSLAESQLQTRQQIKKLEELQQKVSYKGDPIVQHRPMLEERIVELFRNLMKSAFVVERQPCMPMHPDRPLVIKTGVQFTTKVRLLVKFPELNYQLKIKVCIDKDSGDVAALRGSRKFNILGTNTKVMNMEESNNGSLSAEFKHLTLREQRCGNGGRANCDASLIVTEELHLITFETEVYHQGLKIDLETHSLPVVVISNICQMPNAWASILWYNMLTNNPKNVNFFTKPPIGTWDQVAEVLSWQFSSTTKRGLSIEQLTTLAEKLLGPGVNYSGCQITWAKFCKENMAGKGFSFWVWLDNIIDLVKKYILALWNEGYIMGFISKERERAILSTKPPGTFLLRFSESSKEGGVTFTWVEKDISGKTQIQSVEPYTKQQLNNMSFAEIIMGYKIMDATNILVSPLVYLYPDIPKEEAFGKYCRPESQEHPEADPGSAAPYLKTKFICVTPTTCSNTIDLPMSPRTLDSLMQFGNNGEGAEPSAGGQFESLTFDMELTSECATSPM
(§1) In vitro cultured cells or xenograft tumors were lysed 1× Cell Lysis Buffer (Cell Signaling Technology, #9803), resolved by SDS-PAGE NuPAGE gel (Thermo Fisher Scientific), and transferred to a PVDF membrane (Bio Rad). For chemiluminescence immunoblotting, membranes were blocked for 1 h using 5% Blotting-Grade Blocker (#1706404, Bio Rad) in 1× Tris-buffered saline with Tween 20 (TBST, Pierce). Antibodies used were: rabbit mAbs for STAT3 (Cell Signaling Technology, #4368, #12640) and p-STAT3 (Y705) (Cell Signaling Technology, #9245, #52075). HRP conjugated goat anti-rabbit IgG (H+L) (#A27036) secondary antibodies was from Thermo Fisher Scientific. GAPDH (Santa Cruz Technology, sc-47724HRP) and actin (Santa Cruz Technology, sc-8432HRP, sc-47778HRP) were loading controls. For fluorescent immunoblotting, membranes were blocked using Odyssey TBS Blocker Buffer (LI-COR). IRDye 680RD and 800CW Dye-labeled secondary antibodies (LI-COR) were used. The washed membranes were scanned using Odyssey CLx imager (LI-COR). The intensity of Western blot signaling was quantitated using the Odyssey software.
(In general: A western blot detects proteins with antibodies after separation by electrophoresis.)

Assay [3] has as its target T1, STAT3. The assay can be described thus: Western blotting of total STAT1, STAT2, STAT3, STAT4, STAT5 and STAT6 protein in SU-DHL-1 and SUP-M2 cells. Further details: endogenous in cells. On the procedure: FIG. 11 is an image showing the Western blotting analysis of total STAT1, STAT2, STAT3, STAT4, STAT5, and STAT6 protein in SU-DHL-1 and SUP-M2 cells treated with Cpd. Nos. 36 and 37. Cpd.
as §1

Another assay has as its target T2, mutated STAT3 proteins (Homo sapiens, UniProt P40763, Y705F).
T2 construct: endogenous in cells; host or cells: DLD-1 (Y705F)
In words: Western blotting of total STAT3 and p-STAT3 (Y705) in DLD-1 and DLD-1 (Y705F) cells. How it is done:
FIG. 9 is an image showing the Western blotting analysis of total STAT3 protein and phosphorylated STAT3 (Y705) in DLD-1 and DLD-1 (Y705F) cells treated with Cpd.
as §1

T2 sequence (P40763 2-770 Y705F): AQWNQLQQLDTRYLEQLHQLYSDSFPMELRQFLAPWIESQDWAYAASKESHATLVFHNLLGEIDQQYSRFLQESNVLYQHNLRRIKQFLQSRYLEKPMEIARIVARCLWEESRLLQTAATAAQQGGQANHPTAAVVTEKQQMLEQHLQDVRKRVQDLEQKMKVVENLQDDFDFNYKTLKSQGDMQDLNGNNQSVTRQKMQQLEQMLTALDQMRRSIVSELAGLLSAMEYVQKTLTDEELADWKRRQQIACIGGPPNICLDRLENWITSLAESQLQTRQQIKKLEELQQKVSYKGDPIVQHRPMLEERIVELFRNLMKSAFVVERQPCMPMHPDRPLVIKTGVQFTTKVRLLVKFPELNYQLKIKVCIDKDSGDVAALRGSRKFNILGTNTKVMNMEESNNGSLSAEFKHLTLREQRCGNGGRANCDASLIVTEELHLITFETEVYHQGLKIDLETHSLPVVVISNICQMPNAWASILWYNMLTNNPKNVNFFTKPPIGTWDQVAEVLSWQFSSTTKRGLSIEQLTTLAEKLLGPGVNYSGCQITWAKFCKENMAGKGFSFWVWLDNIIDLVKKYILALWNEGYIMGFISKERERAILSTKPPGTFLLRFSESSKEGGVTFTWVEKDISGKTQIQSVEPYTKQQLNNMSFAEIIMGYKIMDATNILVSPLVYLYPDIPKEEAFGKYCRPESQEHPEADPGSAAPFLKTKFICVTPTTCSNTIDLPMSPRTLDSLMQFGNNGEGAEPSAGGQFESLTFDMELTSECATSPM

Take `NC(=O)CC[C@H](NC(=O)[C@@H]1CC[C@@H]2CCN(C(=O)CCCCCC#Cc3cccc4c3CN(C3CCC(=O)NC3=O)C4=O)C[C@H](NC(=O)c3cc4cc(C(F)(F)P(=O)(O)O)ccc4[nH]3)C(=O)N21)C(=O)NC(c1ccccc1)c1ccccc1` (stereo partly drawn) [Cpd. No. 36, ((2-(((5S,8S,10aR)-8-(((S)-5-amino-1-(benzhydrylamino)-1,5-dioxopentan-2-yl)carbamoyl)-3-(8-(2-(2,6-dioxopiperidin-3-yl)-1-oxoisoindolin-4-yl)oct-7-ynoyl)-6-oxodecahydropyrrolo[1,2-a][1,5]diazocin-5-yl)carbamoyl)-1H-indol-5-yl)difluoromethyl)phosphonic Acid]: in assay [1], the cell growth inhibition result is on record as “inhibits cell growth”. Further, the “selectivity of STAT3 degradation over other STAT members (Western blot)” value on STAT3 [2] and on STAT3 [3] was “specifically degrades STAT3 protein over other STAT members” in each case. Also, at mutated STAT3 proteins, the “degradation of mutated STAT3 protein (Western blot)” value is on record as “degrades mutated STAT3 proteins”.
